# Literature values as cited in US6767992B1 (PTC Pharma AG, priority 2001, dated 2004).
# System: RPMI 8322 melanoma cells
substance,measurement,setting,value
L-prolyl-L-m-sarcolysyl-L-p-fluorophenylalanine [PSF],times more toxic than m-sarcolysine,relative to m-sarcolysine,28 times
same,times more toxic than melphalan,relative to melphalan,35 times
